Measured values: patent US20210230101A1, “COMPOUNDS FOR TREATING DENGUE VIRUS INFECTIONS AND OTHER INFECTIONS” (Dana-Farber Cancer Institute, Inc., priority 2018, published 2021)
Like-named read-outs stand apart in the source and are kept apart here.

How the values were obtained:
VSV-eGFP = VSV-eGFP counter screen; type: cell-based
AmpC β-lactamase = biological target: T1, AmpC β-lactamase (Escherichia coli, UniProt P00811); experiment: AmpC beta-lactamase non-specific enzyme inhibition assay; type: biochemical; conditions: IC50/μM vs. AmpC
T1 construct: Shoichet lab (UCSF), gift
T1 sequence (P00811 20-377): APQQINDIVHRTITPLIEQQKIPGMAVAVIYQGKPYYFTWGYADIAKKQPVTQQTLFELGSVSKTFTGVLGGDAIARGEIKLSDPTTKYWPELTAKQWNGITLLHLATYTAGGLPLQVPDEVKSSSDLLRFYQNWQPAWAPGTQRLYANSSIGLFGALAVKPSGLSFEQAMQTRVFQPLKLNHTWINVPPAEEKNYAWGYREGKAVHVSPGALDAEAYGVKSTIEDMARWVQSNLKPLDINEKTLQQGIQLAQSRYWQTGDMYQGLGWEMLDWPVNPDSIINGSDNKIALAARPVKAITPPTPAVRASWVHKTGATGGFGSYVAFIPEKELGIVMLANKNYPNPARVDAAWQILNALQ
Description: AmpC beta-lactamase assay. The AmpC β-lactamase was a kind gift from the Shoichet lab (UCSF). The inhibitor was serially diluted (two-fold dilution series from 100 μM) and pre-incubated with 10 nM enzyme in working buffer (50 mM potassium phosphate, pH 7.0) at room temperature for 5 min. Nitrocefin (100 μM, VWR) was added to the solution and carefully mixed. Absorbance of the final mixture was immediately monitored at 470 nm for 3 min.
For both AmpC and MDH assays, the final concentration of DMSO was 2% for all samples. All assays were repeated in the presence of 0.01% Triton X-100. IC50 values of 3-110-22 presented in Table 2 are representative data from two independent experiments; values for the other lead compounds were measured once for each enzymatic assay.

DENV [1] = experiment: PRNT plaque reduction assay; type: cell-based; conditions: Dengue virus; plaque reduction by 50%; virus not given
Description: For plaque reduction assays, DENV1, 2, 3, 4 were tested on BHK-21 cells, and ZIKV was tested on Vero cells. Vims inocula were diluted in EBSS to 2500 pfu/ml as the final concentration, and were pre-incubated with different concentrations of small molecule inhibitors (2% DMSO vol/vol final concentration) for 45 min at 37° C., 5% CO2. The mixture (200 μl, 500 pfu of virus) was then added to cells for 1 hour (37° C., 5% CO2) to allow infection, after which the inoculum was removed, and the cells were washed with 1×PBS to remove unbound virus and compound. Cells were overlaid with carboxylmethylcellulose and incubated at 37° C., 5% CO2 to allow the formation of plaques (4 days for DENV1, 2, 3, 4 and 2-3 days for ZIKV). The cells were fixed and plaques visualized by staining of the cell monolayers with crystal violet. Empirical analysis was performed to determine the PRNT50 value, defined as the inhibitor concentration needed to reduce plaque formation by 50%.

[2] = Pharmacokinetic (PK) studies; conditions: mouse, in vivo
Description: FIG. 3. Pharmacokinetic (PK) data for S4105. The compound has a volume of distribution of 0.06 L/kg, which is essentially the blood volume of a mouse, implying that the compound may be sequestered in the plasma. […] The intraperitoneal (IP) dose was well absorbed. 8 hours after the IP dose of 20 mg/kg the plasma concentration for the three mice ranged from 75-200 μM. Even if the compound is 99.95% plasma protein bound, this would still give a free fraction of about 50 nM.
FIG. 4. PK data for ZNL-01-132. The compound has a long half-life in plasma of 5-6 hours. After IP dosing at 20 mg/kg high concentrations were achieved and 8 hours post dose the levels were approximately 2 μM.
PK studies were performed on compounds S4105 and ZNL-01-132.

[3] = Cytotoxicity (CellTiter-Glo); type: cell-based; conditions: hamster, BHK21 cells, read-out: CC50/μM (toxicity)
Description: The term “CC50” refers to the concentration of an antiviral agent that causes 50% loss of cell viability.
BHK21 cells (MEM with 2% FBS) were incubated with varying concentrations of inhibitor in a 96-well white plate for 24 hours at 37 degrees C. and 5% CO2. CellTiter-Glo (Promega) solution was used to measure viability following the manufacturer's instructions. Luminescence was measured using a Biotek Synergy plate reader. Data were plotted versus the log10 inhibitor concentration, and non-linear regression analysis (Graphpad Prism) was used to determine CC50 values, defined as the inhibitor concentration required to cause 50% loss of cell viability. The maximum concentration tested was 100 μM. Values presented in Table 1 are the average of two or more independent experiments.

His6-tagged DENV2 sE2 = His6-tagged DENV2 sE2 (Dengue virus type 2, UniProt P14340); experiment: AlphaScreen competition assay (GNF2-biotin probe vs. envelope protein); type: binding, Dengue virus 2 (DENV2)
Source text: Known DENV inhibitors to develop an AlphaScreen assay designed to identify compounds that compete for binding on envelop protein. The AlphaScreen is a bead-based proximity assay that permits measurement of biomolecular interactions of pico- to milli-molar affinities in microplate format. Following excitation of donor beads, energy is transferred to acceptor beads if analytes conjugated to donor and acceptor beads interact. […] We performed cross-titration experiments to optimize the molar concentrations of the probe (GNF2-biotin) and envelope glycoprotein for the assay. We also tested different orders of the addition of the assay components to achieve the best signal-to-noise ratio.

DENV [4] = experiment: Antiviral activity: viral infectivity assay (single-cycle viral yield); type: cell-based; conditions: Dengue virus; concentration that reduces single-cycle viral yield by 10-fold
Description: The term “IC90” refers to the concentration of an antiviral agent that reduces single-cycle viral yield by 10-fold.
For the viral infectivity assay, virus inocula were diluted in EBSS to achieve a multiplicity of infection (MOI) of 1, and were pre-incubated with the given small molecule at varying concentrations for 45 min at 37° C. The mixture was then added to cells for 1 hour at 37° C. to allow infection, after which the inoculum was removed and the cells were washed with 1×PBS to remove unbound virus and compound. Cells were overlaid with medium lacking inhibitor and incubated at 37° C. for 20-24 hours, corresponding to a single cycle of infection. Culture supernatants were harvested at this time, and the yield of infectious particles produced was quantified by plaque-forming assay. For initial antiviral screening of HTS “hits,” compounds were tested for activity at 3 and 10 μM. For IC90 value determination, viral yield (plaque-forming units per milliliter) was plotted versus the log of the inhibitor concentration, and non-linear regression analysis of the data (Graphpad Prism) was performed to determine the concentration at which viral yield is reduced 10-fold.

[5] = TX, in the presence of 0.01% Triton X-100

| Structure (SMILES) | IC50 (AmpC β-lactamase; No TX, without Triton X-100) | IC50 (AmpC β-lactamase; [5]) | EC50 (DENV [1]) | CC50 at 24 h [3] | IC50 (His6-tagged DENV2 sE2) | IC90 (DENV [4]) | further results |
| --- | --- | --- | --- | --- | --- | --- | --- |
| O=C(Nc1ccc(Oc2ccc(Cl)cc2)c(Cl)c1)c1cc(F)cc(F)c1O [ZNL-01-132] | 38 µM | > 100 µM | 0.5 µM | 44 µM | 4 µM |  | % Inhibition Vs. VSV-eGFP, 2.5 μM (VSV-eGFP; 2.5 μM): 80%; % Inhibition Vs. VSV-eGFP, 5 μM (VSV-eGFP; 5 μM): >90%; half-life [2]: 5 to 6 h; concentration at 8 h ([2]; IP 20 mg/kg, 8 hours post dose, read-out: plasma concentration 8 hours after IP dose): ~2 µM |
| O=C(Nc1ccc(Oc2ccc(Cl)cc2)c(Cl)c1)c1cc(I)cc(I)c1O |  |  |  |  | 0.8 µM |  |  |
| Cc1cc(C(C#N)c2ccc(Cl)cc2)c(Cl)cc1NC(=O)c1cc(I)cc(I)c1O (stereo not drawn) [drawing 87] |  |  |  |  | 0.8 µM | 1 µM |  |
| NC(=O)c1cccc(-c2cc(Nc3ccc(OC(F)(F)F)cc3)ncn2)c1 [GNF2, reference compound] |  |  |  |  |  |  | competition of AlphaScreen signal (His6-tagged DENV2 sE2; GNF2-biotin on donor beads, His6-tagged DENV2 sE2 on acceptor beads): competed away in a dose-dependent fashion |
| Cc1cc(C(C#N)c2ccc(Cl)cc2)c(Cl)cc1NC(=O)c1cc(I)cc(I)c1O (stereo not drawn) [S4105] | 0.3 µM | > 100 µM | 0.3 µM | ~50 µM |  |  | Vd [2]: 0.06 L/kg; absorption of intraperitoneal (IP) dose ([2]; ip): well absorbed; concentration at 8 h ([2]; ip, 20 mg/kg): 75 to 200 µM; clearance ([2]; iv): 2.4 mL/h/kg; half-life ([2]; iv): 21 h |
| Cc1cc(C(C#N)c2ccc(Cl)cc2)c(Cl)cc1NC(=O)c1ccccc1O (stereo not drawn) |  |  |  |  | 2 µM | 8 µM |  |
